Data as given in patent US20200138824A1, “TREATMENT OF CANCER WITH A PI3K INHIBITOR IN A PATIENT PRESELECTED FOR HAVING A PIK3CA MUTATION IN THE CTDNA” (Novartis AG, priority 2015, published 2020).

System: HR+, HER2-negative locally advanced or metastatic breast cancer
Experiment: Study CBKM120F2302, randomized double-blind placebo-controlled Phase-III trial: buparlisib plus fulvestrant vs. placebo plus fulvestrant
Assay type: in vivo, human
Details: Full population
Excerpt: For the Study, patients were selected according to the following inclusions and exclusion criteria:
Inclusion Criteria: • Locally advanced or metastatic breast cancer • HER2-negative and hormone receptor-positive status (common breast cancer classification tests) • Postmenopausal woman • A tumor sample must be shipped to a Novartis designated laboratory for identification of biomarkers (PI3K activation status) • Progression or recurrence of breast cancer while on or after aromatase inhibitor treatment • Measurable disease or non measurable disease bone lesions in the absence of measurable disease as per Response Evaluation Criteria in Solid Tumors 1.1 • Adequate bone marrow and organ function defined by laboratory values
Approximately 1200 patients were to be randomized in a 1:1 ratio. Enrollment was to continue until a minimum of 842 patients were randomized in the main cohort, including ≥334 patients with activated PI3K pathway status. […]
The PI3K pathway activation status was defined based on analysis of archival tumor samples as: • A mutation in the PIK3CA gene in one or more of exons 1, 7, 9, or 20 as assessed by Sanger sequencing, and/or • Loss of phosphotensin homolog (PTEN) expression (<10% of tumor cells expressing PTEN at 1+ level by immunohistochemistry [IHC] and no tumor cells staining with an intensity >1+) […]

## Nc1cc(C(F)(F)F)c(-c2cc(N3CCOCC3)nc(N3CCOCC3)n2)cn1 [buparlisib, 5-(2,6-di-morpholin-4-yl-pyrimidin-4-yl)-4-trifluoromethyl-pyridin-2-ylamine]
  Overall safety and tolerability profile: consistent with prior experience in single-arm and combination studies and with the class effects of PI3K inhibitors
